Tests used:
[1] = cytotoxicity MTT assay in BE(2)-M17 cells; type: cell-based, human; settings: human, MTT, 1–100 μM, 24 h
Description: (§1) Human HMC3 microglial (CRL-3304) and neuroblastoma BE(2)-M17 (CRL-2267) cells were obtained from American Type Culture Collection. BE(2)-M17 develops a better dopaminergic phenotype than SH-SY5Y when treated with retinoic acid to direct neuronal differentiation (Carvajal-Oliveros et al., [2022]). Cells were routinely maintained in Dulbecco's Modified Eagle Medium-Nutrient Mixture F12 (DMEM-F12) supplemented with 10% fetal bovine serum (FBS; Thermo Fisher Scientific, Waltham, MA, USA) in a 37°C incubator, with 95% relative humidity and 5% CO2 (NuAire, Plymouth, MN, USA).
(§2) To evaluate cytotoxicity of LM compounds and MPP^+, HMC3 (1 × 10^4) or BE(2)-M17 (2 × 10^4) cells were plated on 96-well dishes, grown for 20 h, and treated with LM compounds (1–100 μM) or MPP^+ [HMC3: 0–8 mM; BE(2)-M17: 0–5 mM]. Next day, 20 μl of tetrazolium dye 3-(4,5-dimethylthiazol-2-yl)-2,5-diphenyltetrazolium bromide (MTT, 5 mg/ml; Sigma-Aldrich) was added to the cells at 37°C for 3 h. The resulted insoluble purple formazan products were dissolved by lysis buffer (composition: 10% Triton X-100, 0.1 N HCl, 18% isopropanol). The absorbance of the dissolved product at optical density (OD) 570 nm was read by using a FLx800 fluorescence microplate spectrophotometer (Bio-Tek, Winooski, VT, USA). The half maximal inhibitory concentration (IC50) of LM compounds was determined through the construction of a dose-response curve. MPP^+ at 4 mM (HMC3 cell viability: 65%−69%) or 0.62 mM [BE(2)-M17 cell viability: 79%−84%] was selected to induce inflammation for further experiments.

[2] = oxygen radical antioxidant capacity (OxiSelect kit); settings: at 4–100 μM concentration
Description: The test of oxygen radical antioxidant capacity (Ou et al., [2001]) was performed using OxiSelect™ kit (Cell Biolabs, San Diego, CA, USA). Briefly, trolox standards (2.5–50 μM) and LM compounds (4–100 μM) were prepared using a serial dilution in a mixture containing 50% acetone and 50% water. After adding fluorescein to blank (50% acetone/50% water), standards, or samples, the mixture was mixed and incubated at 37°C for 30 min. Subsequently, free radical initiator 2,2′-azobis(2-methylpropionamidine) dihydrochloride (AAPH) was added to generate peroxyl radicals (ROO•). The quenching of fluorescent probe over time was recorded at 480 nm excitation and 520 nm emission for 60 min (Bio-Tek FLx800). To quantify the oxygen radical absorbance capacity, the area under the curve (AUC) for blank, standard and samples were calculated. After subtraction of the blank, trolox equivalent (μM) of samples were determined using a calibration curve with trolox standards.

[3] = cytotoxicity MTT assay in HMC3 cells; type: cell-based, human; settings: human, MTT, 1–100 μM, 24 h
Description: as §1, §2

[4] = test system: BE(2)-M17 cells; assay: high-content analysis of neurite outgrowth in MPP^+-treated BE(2)-M17 cells; type: cell-based, human; settings: for neurite length: MPP^+ alone 24.2 μm
Description: For automated neuronal morphology analysis, BE(2)-M17 cells were seeded in 24-well plate (5 × 10^4/well) and treated with retinoic acid, LM compounds (10 μM), and MPP^+ as described. On day 7, after being fixed and permeated, cells were stained with TUBB3 (neuronal class III β-tubulin) antibody (#802001; 1:1,000; BioLegend, San Diago, CA, USA) at 4°C overnight, followed by Alexa Fluor 555-donkey anti-rabbit (#A-31572) antibody (1:1,000; Thermo Fisher Scientific) at room temperature for 2 h. TUBB3 is a β-tubulin isoform constitutively expressed in neurons and important for maintaining further neurite elongation (Ferreira and Caceres, [1992]). After nuclei staining with DAPI, neuronal images were captured at 531 nm excitation and 593 nm emission wavelengths (ImageXpress Micro Confocal; Molecular Devices). Microscopic images were segmented with multi-colored mask to assign each outgrowth to a cell body for quantification of neurite outgrowth. Neurite total length (μm) and numbers of primary neurites originated from neuronal cell body (process) and secondary neurites extended from primary neurites (branch) were analyzed (Neurite Outgrowth Application Module; Molecular Devices). For each sample, around 3,000 cells were analyzed in each of three independent experiments.

[5] = test system: tyrosine hydroxylase (TH); assay: tyrosine hydroxylase immunofluorescence staining in MPP^+-treated BE(2)-M17 cells; type: cell-based, human; settings: for TH expression (immunofluorescence): BE(2)-M17, compound 10 μM + 0.62 mM MPP^+, MPP^+ alone 107%, untreated = 100%
Description: BE(2)-M17 cells were seeded in 24-well plate (5 × 10^4/well) and treated with retinoic acid, LM compounds (10 μM), and MPP^+ as described. On day 7, cells were fixed (4% PFA), permeabilized (0.1% Triton X-100), blocked (2% BSA), and stained with primary tyrosine hydroxylase (TH; a marker for dopamine-containing neurons; Haavik and Toska, [1998]) antibody (#sc-374047; 1:500; Santa Cruz Biotechnology, Santa Cruz, CA, USA) at 4°C overnight, followed by Alexa Fluor 488-donkey anti-mouse IgG secondary antibody (#A-21202; 1:1,000; Thermo Fisher Scientific) at room temperature for 2 h. Nuclei were detected using DAPI (0.1 μg/ml). Dopaminergic differentiation was examined by fluorescence imaging of Alexa Fluor 488 as described.

[6] = BE(2)-M17, compound 10 μM + 0.62 mM MPP^+, MPP^+ alone 2.6
[7] = BE(2)-M17, compound 10 μM + 0.62 mM MPP^+

SMILES	IC50 at 24 h ([1]; BE(2)-M17 neuroblastoma cells) [µM]	oxygen radical antioxidant capacity, trolox equivalent [2] [µM]	IC50 at 24 h ([3]; HMC3 microglial cells) [µM]	number of process [4, 6]	neurite length [4, 7]	IC50 [1] [µM]	IC50 [3] [µM]	TH expression (immunofluorescence) [5] [%]	number of branch ([4]; BE(2)-M17, 0.62 mM MPP^+ alone, untreated 1.2, not significant)	number of process ([4]; BE(2)-M17, 0.62 mM MPP^+ alone, untreated 2.9)	total length of neurite ([4]; BE(2)-M17, 0.62 mM MPP^+ alone, untreated 26.0 μm) [μm]	TH immunofluorescence ([5]; BE(2)-M17, 0.62 mM MPP^+ alone, 40 h, untreated control = 100%) [%]
Cc1ccc(/C=C/C(=O)c2c(O)c3ccccc3oc2=O)cc1 [LM-016]	> 100	0 to 10	> 100	–	–	–	–	–	–	–	–	–
CN(C)c1ccc(/C=C/C(=O)c2c(O)c3ccccc3oc2=O)cc1 [LM-021, (E)-3-(3-(4-(dimethylamino)phenyl)acryloyl)-4-hydroxy-2H-chromen-2-one]	–	2 to 36	–	2.8–3.0	26.2–27.2 μm	> 100	> 100	165	–	–	–	–
O=C(/C=C/c1ccccc1O)c1c(O)c2ccccc2oc1=O [LM-036]	–	15 to 40	–	2.8–3.0	26.2–27.2 μm	> 100	> 100	128	–	–	–	–
C[n+]1ccc(-c2ccccc2)cc1 [MPP^+, 1-methyl-4-phenyl pyridinium, reference compound]	–	–	–	–	–	–	–	–	1.1	2.6	24.2	107

Source: article PMC11473416, “Coumarin-chalcone derivatives as dual NLRP1 and NLRP3 inflammasome inhibitors targeting oxidative stress and inflammation in neurotoxin-induced HMC3 and BE(2)-M17 cell models of Parkinson's disease” (Frontiers in Aging Neuroscience, 2024)
